According to publication PMC3652859, “Inhibitor Discovery of Full-Length New Delhi Metallo-β-Lactamase-1 (NDM-1)” (PLoS ONE, 2013):
“And” between values parts separate entries of the source, which are not always exact repeats. Equal entries are not always repeated. Where two headings read alike, the source gives them in different places.

Assays:
full-length NDM-1 [1] = biological target: T1, full-length NDM-1 (Klebsiella pneumoniae, UniProt C7C422); type: biochemical, E. coli; set-up: The full-length NDM-1 enzyme was isolated to 95% purity as indicated by the SDS-PAGE; His6 tag (pET30a leader) (N, cleaved yes); made in house; host or cells: E. coli BL21 (DE3) carrying pET30a-NDM-1
Text: (§1) Benzylpenicillin (Sangon, Shanghai, China), ampicillin (Sangon, Shanghai, China), cefuroxime (Sigma, St. Louis, USA), ceftazidime (TCI, Shanghai, China), ceftizoxime (TCI, Shanghai, China), cefpiramide (Shandong Lukang, Shandong, China), imipenem (Shenzhen Haibin, Guangdong, China), meropenem (Zhejiang Hisun, Zhejiang, China) and aztreonam (Hunan Kelun, Hunan, China) were used as substrates for determining the steady-state kinetic constants.
(§2) Hydrolysis of the antibiotics by NDM-1 was followed by monitoring the variation in the absorbance of the β-lactam solution in 20 mM HEPES buffer, pH 6.8, 0.25 M NaCl, 2 mM 1,4-Dithio-DL-threitol (DTT) (Sangon, Shanghai, China), 100 µM Zn(NO3)2. All the measurements were made on a UV−1800 spectrophotometer (Mapada, Shanghai, China). The reactions were performed in a total volume of 100 µl at 30°C. BSA (20 µg/ml) was added to diluted solutions of β-lactamase in order to prevent enzyme denaturation. […] The extinction coefficients and wavelengths used in the assays were those described by Laraki et al and Thomas et al. The steady-state kinetic parameters (K m and k cat) were determined more than three times by fitting the concentration dependence of initial rate measurements to the Michaelis−Menten equation using GraphPad Prism (GraphPad Software, La Jolla, America).

[2] = test system: E. coli BL21 (DE3)/pET30a-NDM-1; test: microbe, parasite or virus in culture; type: cell-based; settings: for synergistic antibacterial activity with meropenem / sensitization of the strain to clinically achievable concentrations of meropenem: result in words; for sensitization of the strain to clinically achievable concentrations of meropenem: inhibitor at the level of 100 µM
Method: E. coli BL21 (DE3) was used as a control in the experiment. E. coli BL21 (DE3)/pET30a-NDM-1 was grown overnight in MH broth media (Tianhe Microbial Agents, Hangzhou, China) containing kanamycin (30 µg/ml) at 37°C. Determination of antibacterial synergy was completed using a twofold serial dilution method, as recommended by CLSI guidelines. […] The 96-well microplates were incubated at 37°C with continuous shaking for 18 h and a reading at 630 nm was taken to determine minimum inhibitory concentrations (MICs), [22]. […] Each concentration reading was repeated three times. All of the above experiments were repeated at least twice.

[3] = Solubility behaviour in testing buffer of the IC50 assay; type: physicochemical; settings: result in words
full-length NDM-1 [4] = biological target: T1, full-length NDM-1; test: biochemical
Method: The compounds to be tested were dissolved in DMSO prior to incubation with the enzyme, with the final concentration of DMSO in the assay not exceeding 0.5% (vol/vol). At concentrations below 0.5%, no effect of DMSO on the enzyme activity was observed. IC50s were deduced from a plot of percent loss of activity versus inhibitor concentration. […] The precision of these determinations was within the range of precision 10%.

E. coli BL21 (DE3) = test: MIC of meropenem against control strain; type: cell-based; settings: Escherichia coli
Method: E. coli BL21 (DE3)/pET30a-NDM-1, which is similar to clinical NDM-1-carrying isolates and safer than clinical isolates, was used to evaluate the potential ability of NDM-1 inhibitors to reverse NDM-1-mediated carbapenem resistance in bacteria. E. coli BL21 (DE3) was used as a control in the experiment. E. coli BL21 (DE3)/pET30a-NDM-1 was grown overnight in MH broth media (Tianhe Microbial Agents, Hangzhou, China) containing kanamycin (30 µg/ml) at 37°C. Determination of antibacterial synergy was completed using a twofold serial dilution method, as recommended by CLSI guidelines. […] The 96-well microplates were incubated at 37°C with continuous shaking for 18 h and a reading at 630 nm was taken to determine minimum inhibitory concentrations (MICs), [22]. […] Each concentration reading was repeated three times. All of the above experiments were repeated at least twice.

[5] = test system: CC(C)(O/N=C(\C(=O)N[C@@H]1C(=O)N2C(C(=O)[O-])=C(C[n+]3ccccc3)CS[C@H]12)c1csc(N)n1)C(=O)O; test: purified protein, by the assay type; type: biochemical, E. coli; settings: other: substrate hydrolysis, 20 mM HEPES pH 6.8, 30°C
Text: as §1, §2

[6] = test system: CC1(C)S[C@@H]2[C@H](NC(=O)Cc3ccccc3)C(=O)N2[C@H]1C(=O)O; test: purified protein, by the assay type; type: biochemical, E. coli; settings: other: substrate hydrolysis, 20 mM HEPES pH 6.8, 30°C
Text: as §1, §2

[7] = test system: CC1(C)S[C@@H]2[C@H](NC(=O)[C@H](N)c3ccccc3)C(=O)N2[C@H]1C(=O)O; test: purified protein, by the assay type; type: biochemical, E. coli; settings: other: substrate hydrolysis, 20 mM HEPES pH 6.8, 30°C
Text: as §1, §2

[8] = test system: CO/N=C(\C(=O)N[C@@H]1C(=O)N2C(C(=O)O)=C(COC(N)=O)CS[C@H]12)c1ccco1; test: purified protein, by the assay type; type: biochemical, E. coli; settings: other: substrate hydrolysis, 20 mM HEPES pH 6.8, 30°C
Text: as §1, §2

[9] = test system: C[C@@H](O)[C@H]1C(=O)N2C(C(=O)O)=C(SCCN=CN)C[C@H]12; test: purified protein, by the assay type; type: biochemical, E. coli; settings: other: substrate hydrolysis, 20 mM HEPES pH 6.8, 30°C
Text: as §1, §2

[10] = test system: CO/N=C(\C(=O)N[C@@H]1C(=O)N2C(C(=O)O)=CCS[C@H]12)c1csc(N)n1; test: purified protein, by the assay type; settings: other: substrate hydrolysis, 20 mM HEPES pH 6.8, 30°C
[11] = test system: Cc1cc(O)c(C(=O)N[C@@H](C(=O)N[C@@H]2C(=O)N3C(C(=O)O)=C(CSc4nnnn4C)CS[C@H]23)c2ccc(O)cc2)cn1; test: purified protein, by the assay type; settings: other: substrate hydrolysis, 20 mM HEPES pH 6.8, 30°C
[12] = substrate hydrolysis, 20 mM HEPES pH 6.8, 30°C

T1 sequence (C7C422 29-270 limits assumed): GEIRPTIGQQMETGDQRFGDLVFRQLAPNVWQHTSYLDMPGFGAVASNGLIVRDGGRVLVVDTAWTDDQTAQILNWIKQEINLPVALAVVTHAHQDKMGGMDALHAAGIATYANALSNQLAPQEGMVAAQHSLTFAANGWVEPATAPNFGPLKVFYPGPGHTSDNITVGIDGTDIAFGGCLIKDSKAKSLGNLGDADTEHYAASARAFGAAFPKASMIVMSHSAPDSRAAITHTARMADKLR

CC1(C)S[C@@H]2[C@H](NC(=O)[C@H](N)c3ccccc3)C(=O)N2[C@H]1C(=O)O [Ampicillin, ampicillin]
K m (full-length NDM-1 [1]; [12]): 18 ± 1 µM
K m (full-length NDM-1 [1]; substrate hydrolysis, 20 mM HEPES pH 6.8, 30°C, listed as ampicillin): 18 µM

C[C@H]1[C@H](NC(=O)/C(=N\OC(C)(C)C(=O)O)c2csc(N)n2)C(=O)N1S(=O)(=O)O [Aztreonam, aztreonam]
hydrolysis by NDM-1 / kinetic constants (full-length NDM-1 [1]; result in words): kinetic constants could not be calculated

CC1(C)S[C@@H]2[C@H](NC(=O)Cc3ccccc3)C(=O)N2[C@H]1C(=O)O [Benzylpenicillin]
K m (full-length NDM-1 [1]; [12]): 13 ± 1 µM
K m (full-length NDM-1 [1]; substrate hydrolysis, 20 mM HEPES pH 6.8, 30°C, listed as benzylpenicillin): 13 µM

Cc1cc(O)c(C(=O)N[C@@H](C(=O)N[C@@H]2C(=O)N3C(C(=O)O)=C(CSc4nnnn4C)CS[C@H]23)c2ccc(O)cc2)cn1 [Cefpiramide, cefpiramide]
K m (full-length NDM-1 [1]; [12]): 39 ± 3 µM

CC(C)(O/N=C(\C(=O)N[C@@H]1C(=O)N2C(C(=O)[O-])=C(C[n+]3ccccc3)CS[C@H]12)c1csc(N)n1)C(=O)O [Ceftazidime, ceftazidime]
K m (full-length NDM-1 [1]; [12]): 129 ± 9 µM
K m (full-length NDM-1 [1]; substrate hydrolysis, 20 mM HEPES pH 6.8, 30°C, listed as ceftazidime): 129 µM

CO/N=C(\C(=O)N[C@@H]1C(=O)N2C(C(=O)O)=CCS[C@H]12)c1csc(N)n1 [Ceftizoxime, ceftizoxime]
K m (full-length NDM-1 [1]; [12]): 29 ± 2 µM

CO/N=C(\C(=O)N[C@@H]1C(=O)N2C(C(=O)O)=C(COC(N)=O)CS[C@H]12)c1ccco1 [Cefuroxime, cefuroxime]
K m (full-length NDM-1 [1]; [12]): 12 µM and 12 ± 1 µM

COC(=O)c1cc(OCc2ccccc2)c(C(=O)OC)s1 [Compound 1]
MICs of meropenem in combination with NDM-1 inhibitors ([2]; inhibitor at 6.25 µM): 256 µg/mL
MICs of meropenem in combination with NDM-1 inhibitors ([2]; inhibitor at 12.5 µM): 256 µg/mL
MICs of meropenem in combination with NDM-1 inhibitors ([2]; inhibitor at 25.0 µM): 256 µg/mL
MICs of meropenem in combination with NDM-1 inhibitors ([2]; inhibitor at 50.0 µM): 256 µg/mL
synergistic antibacterial activity with meropenem [2]: did not exhibited synergistic antibacterial effect
solubility [3]: precipitated out at high concentrations
IC50 (full-length NDM-1 [4]): > 300 µM

COC(=O)c1sc(C(=O)OC)c(OCc2ccccc2)c1OCc1ccccc1 [Compound 2]
MICs of meropenem in combination with NDM-1 inhibitors ([2]; inhibitor at 6.25 µM): 256 µg/mL
MICs of meropenem in combination with NDM-1 inhibitors ([2]; inhibitor at 12.5 µM): 256 µg/mL
MICs of meropenem in combination with NDM-1 inhibitors ([2]; inhibitor at 25.0 µM): 256 µg/mL
MICs of meropenem in combination with NDM-1 inhibitors ([2]; inhibitor at 50.0 µM): 256 µg/mL
synergistic antibacterial activity with meropenem [2]: did not exhibited synergistic antibacterial effect
solubility [3]: precipitated out at high concentrations
IC50 (full-length NDM-1 [4]): > 100 µM

COC(=O)c1sc(C(=O)OC)c(OCc2nnn[nH]2)c1OCc1nnn[nH]1 [Compound 3]
MICs of meropenem in combination with NDM-1 inhibitors ([2]; inhibitor at 6.25 µM): 256 µg/mL
MICs of meropenem in combination with NDM-1 inhibitors ([2]; inhibitor at 12.5 µM): 256 µg/mL
MICs of meropenem in combination with NDM-1 inhibitors ([2]; inhibitor at 25.0 µM): 128 µg/mL
MICs of meropenem in combination with NDM-1 inhibitors ([2]; inhibitor at 50.0 µM): 32 µg/mL
MICs of meropenem in combination with NDM-1 inhibitors ([2]; inhibitor at 100.0 µM): 32 µg/mL
synergistic antibacterial activity with meropenem [2]: showed synergistic antibacterial activity
solubility [3]: better solubility
IC50 (full-length NDM-1 [4]): 980 µM

O=C(O)C(C(=O)O)c1cc(Cc2nnn[nH]2)sc1Cc1nnn[nH]1 [Compound 4]
MICs of meropenem in combination with NDM-1 inhibitors ([2]; inhibitor at 6.25 µM): 128 µg/mL
MICs of meropenem in combination with NDM-1 inhibitors ([2]; inhibitor at 12.5 µM): 64 µg/mL
MICs of meropenem in combination with NDM-1 inhibitors ([2]; inhibitor at 25.0 µM): 64 µg/mL
MICs of meropenem in combination with NDM-1 inhibitors ([2]; inhibitor at 50.0 µM): 32 µg/mL
MICs of meropenem in combination with NDM-1 inhibitors ([2]; inhibitor at 100.0 µM): 16 µg/mL
sensitization of the strain to clinically achievable concentrations of meropenem [2]: able to sensitize the strain to clinically achievable concentrations of meropenem
synergistic antibacterial activity with meropenem [2]: showed synergistic antibacterial activity
solubility [3]: stronger solubility
IC50 (full-length NDM-1 [4]): 280 µM

O=C(O)C(C(=O)O)c1ccsc1 [Compound 5, 3-thiophenemalonic acid]
MICs of meropenem in combination with NDM-1 inhibitors ([2]; inhibitor at 6.25 µM): 256 µg/mL
MICs of meropenem in combination with NDM-1 inhibitors ([2]; inhibitor at 12.5 µM): 128 µg/mL
MICs of meropenem in combination with NDM-1 inhibitors ([2]; inhibitor at 25.0 µM): 64 µg/mL
MICs of meropenem in combination with NDM-1 inhibitors ([2]; inhibitor at 50.0 µM): 32 µg/mL
MICs of meropenem in combination with NDM-1 inhibitors ([2]; inhibitor at 100.0 µM): 16 µg/mL
sensitization of the strain to clinically achievable concentrations of meropenem [2]: able to sensitize the strain to clinically achievable concentrations of meropenem
synergistic antibacterial activity with meropenem [2]: showed synergistic antibacterial activity
IC50 (full-length NDM-1 [4]): 610 µM

C[C@@H](O)[C@H]1C(=O)N2C(C(=O)O)=C(SCCN=CN)C[C@H]12 [Imipenem, imipenem]
K m (full-length NDM-1 [1]; [12]): 127 ± 11 µM
K m (full-length NDM-1 [1]; substrate hydrolysis, 20 mM HEPES pH 6.8, 30°C, listed as imipenem): 127 µM

C[C@@H](O)[C@H]1C(=O)N2C(C(=O)O)=C(S[C@@H]3CN[C@H](C(=O)N(C)C)C3)[C@H](C)[C@H]12 [Meropenem, meropenem]
MIC ([2]; Escherichia coli): 256 µg/mL
MIC (E. coli BL21 (DE3)): 2 µg/mL
K m (full-length NDM-1 [1]; [12]): 68 ± 6 µM
V max (full-length NDM-1 [1]; [12]): 2.0 ± 0.15 µM/s
k cat (full-length NDM-1 [1]; [12]): 4.0 s⁻¹
K m (full-length NDM-1 [1]; substrate hydrolysis, 20 mM HEPES pH 6.8, 30°C, listed as meropenem): 68 µM

full-length NDM-1 (Klebsiella pneumoniae)
kcat [5]: 3.6 s⁻¹
kcat/Km [5]: 30000 M⁻¹ s⁻¹
kcat [6]: 10 s⁻¹ and 16.7 s⁻¹
kcat/Km [6]: 1.28e+06 M⁻¹ s⁻¹
kcat [7]: 10 s⁻¹ and 11.4 s⁻¹
kcat/Km [7]: 630000 M⁻¹ s⁻¹
kcat [8]: 2.6 s⁻¹
kcat/Km [8]: 220000 M⁻¹ s⁻¹
kcat [9]: 10 s⁻¹ and 10.8 s⁻¹
kcat/Km [9]: 90000 M⁻¹ s⁻¹
kcat [10]: 3 s⁻¹
kcat/Km [10]: 100000 M⁻¹ s⁻¹
kcat [11]: 1.4 s⁻¹
kcat/Km [11]: 40000 M⁻¹ s⁻¹
